Experimental data from patent publication US9708336B2, “Metallo-beta-lactamase inhibitors” (priority 2014, dated 2017).
Where two headings read alike, the source gives them in different places.

Columns and labels:
NDM-1 = NDM-1 (Klebsiella pneumoniae, UniProt C7C422); experiment: biochemical; assay type: biochemical; details: read-out: NDM-1 IC50
IMP-1 = IMP-1 (Serratia marcescens, UniProt P52699); experiment: biochemical; assay type: biochemical; details: read-out: IMP-1 IC50
[1] = system: Escherichia coli expressing NDM-1 (CLB30005); experiment: Antibiotic potentiation activity: synergistic concentration (MITC95) with imipenem, OD600 growth; assay type: cell-based; details: for Escherichia coli expressing NDM-1 (CLB 30005) MITC95: concentration giving 95% inhibition of bacterial growth; for Escherichia coli MITC95: Escherichia coli expressing NDM-1 (CLB30005), 95% growth inhibition
How it was run: (§1)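 In 1.1× CAMHB, clinical isolates from overnight plates were challenged with test compound alongside imipenem at an assay concentration of 4 μg/ml, sometimes 1 μg/ml. Plates sat covered at 35 °C for 22–24 h prior to spectrophotometric reading.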

[2] = system: Klebsiella pneumoniae expressing VIM-1 (IHMA599644); experiment: as above; assay type: cell-based; details: for Klebsiella pneumoniae expressing VIM-1 (IHMA 599644) MITC95: concentration giving 95% inhibition of bacterial growth
How it was run: as §1

[3] = system: Serratia marcescens expressing IMP-1 (CL5741); experiment: as above; assay type: cell-based; details: for Serratia marcescens expressing IMP-1 (CL5741) MITC95: concentration giving 95% inhibition of bacterial growth
How it was run: as §1

VIM-1 = VIM-1 (Pseudomonas aeruginosa (strain ATCC 15692 / DSM 22644 / CIP 104116 / JCM 14847 / LMG 12228 / 1C / PRS 101 / PAO1), UniProt A0A0F7KYQ8); experiment: Enzyme activity: determination of IC50, fluorescence assay with CCF2-FA substrate (VIM-1); assay type: biochemical; details: fluorescence assay with CCF2-FA substrate; read-out: VIM-1 IC50
[4] = system: Escherichia coli expressing NDM-1 (CLB30016); experiment: Antibiotic potentiation activity: synergistic concentration (MITC95) with imipenem, OD600 growth; assay type: cell-based; details: CLB30016 (NDM-1), 95% inhibition of bacterial growth
How it was run: as §1

[5] = fluorescence assay with CCF2-FA substrate
[6] = NDM-1 enzyme, CCF2-FA fluorescence assay
[7] = Klebsiella pneumoniae expressing VIM-1 (IHMA599644), 95% growth inhibition
[8] = Serratia marcescens expressing IMP-1 (CL5741), 95% growth inhibition
[9] = IHMA599644 (VIM-1), 95% inhibition of bacterial growth
[10] = CL5741 (IMP-1), 95% inhibition of bacterial growth

Sequence of NDM-1 (C7C422 whole entry, looked up, species assumed): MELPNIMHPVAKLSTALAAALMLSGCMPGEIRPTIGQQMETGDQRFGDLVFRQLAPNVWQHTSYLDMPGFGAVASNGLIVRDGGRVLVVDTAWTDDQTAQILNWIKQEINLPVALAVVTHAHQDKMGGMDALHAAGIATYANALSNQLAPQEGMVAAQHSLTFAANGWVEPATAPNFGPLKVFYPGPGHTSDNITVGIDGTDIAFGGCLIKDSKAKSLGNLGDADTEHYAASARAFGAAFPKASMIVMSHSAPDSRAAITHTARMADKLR
Sequence of IMP-1 (P52699 whole entry, looked up): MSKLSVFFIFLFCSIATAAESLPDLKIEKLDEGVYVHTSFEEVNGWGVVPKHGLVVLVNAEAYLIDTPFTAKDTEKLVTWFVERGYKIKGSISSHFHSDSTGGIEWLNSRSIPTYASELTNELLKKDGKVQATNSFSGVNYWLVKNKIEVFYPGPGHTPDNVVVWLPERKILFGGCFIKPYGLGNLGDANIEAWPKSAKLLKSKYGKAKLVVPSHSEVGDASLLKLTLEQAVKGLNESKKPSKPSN

SMILES: NS(=O)(=O)c1cccc(-c2nccs2)c1-c1nn[nH]n1 [Example 35, 2-(2H-tetrazol-5-yl)-3-(1,3-thiazol-2-yl)benzenesulfonamide]
- IC50 (NDM-1; [5]): 138 nM
- IC50 (IMP-1; [5]): 2680 nM
- Escherichia coli expressing NDM-1 (CLB 30005) MITC95 [1]: 1.953 µM
- Klebsiella pneumoniae expressing VIM-1 (IHMA 599644) MITC95 [2]: 100 µM
- Serratia marcescens expressing IMP-1 (CL5741) MITC95 [3]: 50 µM

SMILES: Cn1ccnc1-c1cccc(S(N)(=O)=O)c1-c1nn[nH]n1 [Example 38, 3-(1-methyl-1H-imidazol-2-yl)-2-(2H-tetrazol-5-yl)benzenesulfonamide]
- IC50 (NDM-1; [5]): 281 nM
- IC50 (IMP-1; [5]): 2390 nM
- Escherichia coli expressing NDM-1 (CLB 30005) MITC95 [1]: 0.7813 µM
- Klebsiella pneumoniae expressing VIM-1 (IHMA 599644) MITC95 [2]: 200 µM
- Serratia marcescens expressing IMP-1 (CL5741) MITC95 [3]: 25 µM

SMILES: NS(=O)(=O)c1cccc(-c2ncccn2)c1-c1nn[nH]n1 [Example 39, 3-pyrimidin-2-yl-2-(2H-tetrazol-5-yl)benzenesulfonamide]
- IC50 (NDM-1; [5]): 346 nM
- IC50 (IMP-1; [5]): 2570 nM
- Escherichia coli expressing NDM-1 (CLB 30005) MITC95 [1]: 1.563 µM
- Klebsiella pneumoniae expressing VIM-1 (IHMA 599644) MITC95 [2]: >200 µM
- Serratia marcescens expressing IMP-1 (CL5741) MITC95 [3]: 50 µM

SMILES: Cn1cncc1-c1cccc(S(N)(=O)=O)c1-c1nn[nH]n1 [Example 43, 3-(1-methyl-1H-imidazol-5-yl)-2-(2H-tetrazol-5-yl)benzenesulfonamide]
- IC50 (NDM-1; [5]): 310 nM
- IC50 (IMP-1; [5]): 2090 nM
- Escherichia coli expressing NDM-1 (CLB 30005) MITC95 [1]: 1.172 µM
- Klebsiella pneumoniae expressing VIM-1 (IHMA 599644) MITC95 [2]: >200 µM
- Serratia marcescens expressing IMP-1 (CL5741) MITC95 [3]: 75 µM

SMILES: CN(C(=O)c1ccc(-c2cccc(S(N)(=O)=O)c2-c2nn[nH]n2)cc1)C1CCOCC1 [Example 77, N-methyl-3′-sulfamoyl-N-(tetrahydro-2H-pyran-4-yl)-2′-(2H-tetrazol-5-yl)biphenyl-4-carboxamide]
- IC50 (NDM-1; [5]): 12 nM
- IC50 (IMP-1; [5]): 53.8 nM
- Escherichia coli expressing NDM-1 (CLB 30005) MITC95 [1]: 9.375 µM
- Klebsiella pneumoniae expressing VIM-1 (IHMA 599644) MITC95 [2]: >200 µM
- Serratia marcescens expressing IMP-1 (CL5741) MITC95 [3]: 28.13 µM

SMILES: NS(=O)(=O)c1cccc(-c2ccc(OCCN3CCCCC3)cc2)c1-c1nn[nH]n1 [Example 89, 4′-(2-piperidin-1-ylethoxy)-2-(2H-tetrazol-5-yl)biphen-3-sulfonamide]
- IC50 (NDM-1; [5]): 54.7 nM
- IC50 (IMP-1; [5]): 319 nM
- Escherichia coli expressing NDM-1 (CLB 30005) MITC95 [1]: 4.688 µM
- Klebsiella pneumoniae expressing VIM-1 (IHMA 599644) MITC95 [2]: >200 µM
- Serratia marcescens expressing IMP-1 (CL5741) MITC95 [3]: 12.5 µM

SMILES: NS(=O)(=O)c1cccc(-c2ccnc(CO)c2)c1-c1nn[nH]n1 [Example 92, 3-[2-(hydroxymethyl)pyridin-4-yl]-2-(2H-tetrazol-5-yl)benzenesulfonamide]
- Escherichia coli expressing NDM-1 (CLB 30005) MITC95 [1]: 0.3906 µM
- Serratia marcescens expressing IMP-1 (CL5741) MITC95 [3]: 50 µM

SMILES: NS(=O)(=O)c1cccc(-c2csc(CN3CCOCC3)c2)c1-c1nn[nH]n1 [Example 103, 3-[5-(morpholin-4-ylmethyl)thiophen-3-yl]-2-(2H-tetrazol-5-yl)benzenesulfonamide]
- IC50 (NDM-1; [5]): 49.4 nM
- IC50 (IMP-1; [5]): 311 nM
- Escherichia coli expressing NDM-1 (CLB 30005) MITC95 [1]: 9.375 µM
- Klebsiella pneumoniae expressing VIM-1 (IHMA 599644) MITC95 [2]: >200 µM
- Serratia marcescens expressing IMP-1 (CL5741) MITC95 [3]: 15.63 µM

SMILES: CCOC(=O)CCn1cc(-c2cccc(S(N)(=O)=O)c2-c2nn[nH]n2)cn1 [Example 110, ethyl 3-{4-[3-sulfamoyl-2-(2H-tetrazol-5-yl)phenyl]-1H-pyrazol-1-yl}propanoate]
- IC50 (NDM-1; [5]): 51.9 nM
- IC50 (IMP-1; [5]): 445 nM
- Escherichia coli expressing NDM-1 (CLB 30005) MITC95 [1]: 9.375 µM
- Klebsiella pneumoniae expressing VIM-1 (IHMA 599644) MITC95 [2]: >200 µM
- Serratia marcescens expressing IMP-1 (CL5741) MITC95 [3]: 28.13 µM

SMILES: NS(=O)(=O)c1cccc(C#CCN2CCC(=O)CC2)c1-c1nn[nH]n1 [Example 146, 3-[3-(4-oxopiperidin-1-yl)prop-1-yn-1-yl]-2-(2H-tetrazol-5-yl)benzenesulfonamide]
- IC50 (NDM-1; [5]): 65.5 nM
- IC50 (IMP-1; [5]): 766 nM
- Escherichia coli expressing NDM-1 (CLB 30005) MITC95 [1]: 1.172 µM
- Klebsiella pneumoniae expressing VIM-1 (IHMA 599644) MITC95 [2]: >200 µM
- Serratia marcescens expressing IMP-1 (CL5741) MITC95 [3]: 50 µM

SMILES: NS(=O)(=O)c1nccc(-c2ccc(C(=O)NC3CCOCC3)cc2)c1-c1nnn[nH]1 [Example 186, 4-(2-Sulfamoyl-3-(1H-tetrazol-5-yl)pyridin-4-yl)-N-(tetrahydro-2H-pyran-4-yl)benzamide]
- IC50 (NDM-1; [5]): 97.1 nM
- IC50 (IMP-1; [5]): 564 nM
- Escherichia coli expressing NDM-1 (CLB 30005) MITC95 [1]: 18.75 µM
- Klebsiella pneumoniae expressing VIM-1 (IHMA 599644) MITC95 [2]: >200 µM
- Serratia marcescens expressing IMP-1 (CL5741) MITC95 [3]: 100 µM

SMILES: NS(=O)(=O)c1nccc(-c2cccnc2)c1-c1nnn[nH]1 [Example 193, 3′-(1H-tetrazol-5-yl)-[3,4′-bipyridine]-2′-sulfonamide]
- IC50 (NDM-1; [5]): 374 nM
- IC50 (IMP-1; [5]): 2660 nM
- Escherichia coli expressing NDM-1 (CLB 30005) MITC95 [1]: 0.7813 µM
- Klebsiella pneumoniae expressing VIM-1 (IHMA 599644) MITC95 [2]: 37.5 µM
- Serratia marcescens expressing IMP-1 (CL5741) MITC95 [3]: 150 µM

SMILES: CN(C)c1ccc(-c2ccnc(S(N)(=O)=O)c2-c2nn[nH]n2)cn1 [Example 211, 6-(dimethylamino)-3′-(2H-tetrazol-5-yl)-[3,4′-bipyridine]-2′-sulfonamide]
- IC50 (NDM-1; [5]): 45.6 nM
- IC50 (IMP-1; [5]): 537 nM
- Escherichia coli expressing NDM-1 (CLB 30005) MITC95 [1]: 0.3906 µM
- Klebsiella pneumoniae expressing VIM-1 (IHMA 599644) MITC95 [2]: 200 µM
- Serratia marcescens expressing IMP-1 (CL5741) MITC95 [3]: 31.25 µM

SMILES: COC(=O)c1ccc(-c2nn[nH]n2)c(S(N)(=O)=O)c1 [Example 255, Methyl 3-sulfamoyl-4-(2H-tetrazol-5-yl)benzoate]
- IC50 (NDM-1; [6]): 699 nM
- Escherichia coli MITC95 [1]: 25 µM
- Klebsiella pneumoniae MITC95 [2, 7]: >200 µM
- Serratia marcescens MITC95 [3, 8]: >200 µM

SMILES: NS(=O)(=O)c1ccc2ccccc2c1-c1nnn[nH]1 [Example 399, 1-(1H-tetrazol-5-yl)naphthalene-2-sulfonamide]
- IC50 (NDM-1; [6]): 117 nM
- IC50 (IMP-1; IMP-1 enzyme, CCF2-FA fluorescence assay): 15100 nM
- Escherichia coli MITC95 [1]: 3.906 µM
- Klebsiella pneumoniae MITC95 [2, 7]: >200 µM
- Serratia marcescens MITC95 [3, 8]: >200 µM

SMILES: NC[C@H](N)C(=O)NC1CCC(c2ccc(C(F)(F)F)c(S(N)(=O)=O)c2-c2nnn[nH]2)CC1 (stereo partly drawn) [Example 837, (S)-2,3-diamino-N-((1r,4S)-4-(3-sulfamoyl-2-(1H-tetrazol-5-yl)-4-(trifluoromethyl)phenyl)cyclohexyl)propanamide]
- IC50 (NDM-1; [5]): 8.68 nM
- IC50 (VIM-1): 2.9 nM
- IC50 (IMP-1; [5]): 21.2 nM
- Escherichia coli MITC95 [4]: 1.563 µM
- Klebsiella pneumoniae MITC95 [2, 9]: 6.25 µM
- Serratia marcescens MITC95 [3, 10]: 0.5859 µM

SMILES: NC1CCC(c2ccc(CCC3CCNCC3)c(S(N)(=O)=O)c2-c2nn[nH]n2)CC1 (centres unmarked) [Example 838, 3-(4-aminocyclohexyl)-6-[2-(4-piperidyl)ethyl]-2-(2H-tetrazol-5-yl)benzenesulfonamide]
- IC50 (NDM-1; [5]): 68.3 nM
- IC50 (VIM-1): 61.2 nM
- IC50 (IMP-1; [5]): 1680 nM
- Escherichia coli MITC95 [4]: 3.125 µM
- Klebsiella pneumoniae MITC95 [2, 9]: 6.25 µM
- Serratia marcescens MITC95 [3, 10]: 12.5 µM

SMILES: NC1CCC(c2ccc(CC3CCNCC3)c(S(N)(=O)=O)c2-c2nn[nH]n2)CC1 (centres unmarked) [Example 839, 3-(4-aminocyclohexyl)-6-(piperidin-4-ylmethyl)-2-(2H-tetrazol-5-yl)benzenesulfonamide]
- IC50 (NDM-1; [5]): 56.9 nM
- IC50 (VIM-1): 19.3 nM
- IC50 (IMP-1; [5]): 359 nM
- Escherichia coli MITC95 [4]: 3.125 µM
- Klebsiella pneumoniae MITC95 [2, 9]: 6.25 µM
- Serratia marcescens MITC95 [3, 10]: 6.25 µM

SMILES: NS(=O)(=O)c1c(C(F)(F)F)ccc(-c2cccn3ncnc23)c1-c1nnn[nH]1 [Example 840, 3-([1,2,4]triazolo[1,5-a]pyridin-8-yl)-2-(1H-tetrazol-5-yl)-6-(trifluoromethyl)benzenesulfonamide]
- IC50 (NDM-1; [5]): 2.49 nM
- IC50 (VIM-1): 0.46 nM
- IC50 (IMP-1; [5]): 14.1 nM
- Escherichia coli MITC95 [4]: 3.125 µM
- Klebsiella pneumoniae MITC95 [2, 9]: 6.25 µM
- Serratia marcescens MITC95 [3, 10]: 12.5 µM
